Reference: patent US5232917A, “Methods, compositions, and compounds for allosteric modulation of the GABA receptor by members of the androstane and pregnane series” (priority 1991, dated 1993)

Tests used:
[1] = system: sedative potential (rotorod); test: Rotorod test; conditions: rotorod ED50 vs (+)bicuculline ED50
Experimental: (§1) Adult male CFI mice (20-30g) were used in these studies. […] Ten to twelve mice were used per dose of test drug. […] Sedative potential was determined by a rotorod test where the number of mice staying on a rotating (6 rpm) rod for ≥1 min. in each of three trials was determined.

[2] = system: (+)bicuculline-induced seizures; conditions: dissolved in DMSO; Belelli et al., 1989; cited from earlier work
[3] = system: metrazol-induced convulsions; conditions: dissolved in DMSO; Belelli et al., 1989; cited from earlier work
[4] = dissolved in DMSO; Belelli et al., 1989; cited from earlier work
BZ receptor = test: [3H]flunitrazepam binding to the BZ receptor in rat hippocampal homogenates; conditions: pentobarbital 1.0 mM; 0.25 nM [3H]FLU; no GABA; FIG. 3
punished responding = test: Vogel conflict paradigm (lick suppression); assay type: in vivo, mice (male N.I.H. Swiss-Webster); conditions: 3α-OH-DHP 20 mg/kg
From the text: An Anxio-Monitor (Omnitech Electronics, Columbus, Ohio) was used for measuring lick suppression. The testing chamber consisted of a clear plexiglass box (29 cm×29 cm×23 cm) with a metal drinking tube located 2.5 cm from the floor and extending 2 cm into the box. The shock was applied through the drinking spout and was controlled by the Anxio-Monitor. […] The reinforcer was 0.1M sucrose.
The conflict test procedure described by Vogel et al. (1980) was employed. This procedure is a modification of the original lick suppression test first described by Vogel et al. (1971). After 24 hr. of water deprivation,mice were allowed to explore the test apparatus and drink without punishment for 10 min. or 100 licks. […] Mice were allowed unpunished access to the drinking tube for 20 licks, thereafter, every 10th lick was punished with 0.1 mA shock. The test duration was 5 min.
The vehicle control data were analyzed across test days using an 1-way analysis of variance (ANOVA). […] The dose-response curves were then analyzed using an 1-way ANOVA, followed by Dunnett's t-test for individual comparisons between doses and control. The open-field and habituated locomotor data were analyzed using ANOVA followed by Dunnett's t-test. […] All data is expressed as the mean±S.E.M.

Rotorod test = conditions: mouse, in vivo, ip
Experimental: as §1

estrogen receptor = target: T1, estrogen receptor (Bos taurus, UniProt P49884); test: Inhibition of 3H-estradiol binding to bovine uteral estrogen receptors; conditions: read-out: % of inhibition of 3H-estradiol binding, B, competitor 10^-6 M; 0.25 nM 3H-estradiol
T1 construct: from tissue; host or cells: bovine uterus cytosol
T1 sequence (P49884 1-596): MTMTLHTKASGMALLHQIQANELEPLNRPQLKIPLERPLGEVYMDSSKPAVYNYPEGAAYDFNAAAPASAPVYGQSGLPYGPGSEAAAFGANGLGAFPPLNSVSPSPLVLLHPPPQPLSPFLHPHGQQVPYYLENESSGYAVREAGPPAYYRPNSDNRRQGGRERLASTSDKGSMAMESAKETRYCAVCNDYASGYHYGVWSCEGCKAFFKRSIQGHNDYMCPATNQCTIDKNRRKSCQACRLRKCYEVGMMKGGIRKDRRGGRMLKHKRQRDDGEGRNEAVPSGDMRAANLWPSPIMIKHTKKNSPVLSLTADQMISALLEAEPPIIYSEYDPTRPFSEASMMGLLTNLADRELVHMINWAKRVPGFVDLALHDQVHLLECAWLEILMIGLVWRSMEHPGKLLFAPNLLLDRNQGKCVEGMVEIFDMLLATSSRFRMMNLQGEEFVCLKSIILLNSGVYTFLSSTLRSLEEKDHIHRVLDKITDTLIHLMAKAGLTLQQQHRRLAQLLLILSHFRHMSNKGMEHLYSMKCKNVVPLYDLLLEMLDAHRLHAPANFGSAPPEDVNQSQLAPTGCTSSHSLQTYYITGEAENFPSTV
Experimental: The hormonal activity of drugs described herein was further studied through testing their potential estrogenic, progestinic, mineralocorticoid and glucocorticoid activities. These activities were analyzed by monitoring the ability of the drugs to inhibit binding of the steroid hormones to their respective hormone receptors.

CC(=O)[C@H]1CC[C@H]2[C@@H]3CC[C@H]4C[C@H](O)CC[C@]4(C)[C@H]3CC[C@]12C [Example 3α-OH-DHP, 3α-hydroxy-5α-pregnan-20-one]
sedative liability at anticonvulsant doses [1]: low
ED50 BIC (bicuculline) [2]: 4.1 ± 1.7 mg/kg
ED50 MTZ (metrazol) [3]: 18.8 ± 1.1 mg/kg
LD50 [4]: > 500 mg/kg
interaction with pentobarbital in the enhancement of [3H]FLU binding (BZ receptor): does not interact
increase in number of shocks received vs controls (punished responding; 5 min session, p=0.01, FIG. 14): 235.6%
number of shocks received (punished responding; controls […]): 13.9±2.1

C[C@]12CC[C@@H](O)C[C@@H]1CC[C@@H]1[C@@H]2CC[C@]2(C)[C@@H](C(=O)CO)CC[C@@H]12 [Example 5α-THDOC, 3α,21-dihydroxy-5α-pregnan-20-one]
TD50 (Rotorod test): 22.9 mg/kg
inhibition at 1 µM (estrogen receptor): 4%
